Source: US11458132B2, “Quinolin-2(1H)-one inhibitors of Late SV40 Factor” (TRUSTEES OF BOSTON UNIVERSITY, priority 2020, dated 2022)

Experiments:
[1] = system: RPE cells; test: Wound healing assay; assay type: cell-based
Method: Wound healing analysis: Confluent RPE cells were synchronized by incubating with 2 mM thymidine for 18-20 hours. Two intersecting lines were drawn into the confluent cells using a pipette tip. A phase-contrast image was acquired of the intersection point (“0 h” time-point) on an Olympus IX50 inverted microscope, immediately followed by treatment with the respective inhibitor and 2 mM thymidine. Phase-contrast images of the intersection point were acquired every 2 hours for 12 hours, continuing incubation at 37° C. in 5% CO2 in-between time points. Using ImageJ, the distances between each pair of neighboring vertices of the intersection point at each time-point were measured and normalized to the “0 h” sample.
RPE-hTERT Flp-In cells, propagated in DME M:F12 media with 10% fetal bovine serum at 37° C. in a 5% CO2 humidified incubator, were grown to confluence in 6-well tissue culture plates. One day prior to performing the wound healing assay, the medium was exchanged to also include 2 mM thymidine, so that the cells would stop dividing.
A cross-shaped wound was scratched into each well, and the cells imaged by phase contrast microscopy using at 4× magnification using a Olympus IX50 Inverted microscope. Then the cell media was exchanged to include vehicle (DMSO at 0.01%), 50 nM FQI2-34, 100 nM FQI2-34, or 200 nM FQI2-34; 2 mM thymidine was maintained throughout, as well. Cells were imaged again at 2 h, 4h, 6h, and 8h, in order to measure the migration of the cells into the wound.
Each of the 4 lines across the vertices of the “X” were individually measured from each set of images using ImageJ. Relative distances of cell migration into the wound were obtained by subtracting each of the lengths for 2-8 hour timepoints from the length at the 0 hour timepoint for that line and that sample. The averages of the four changes in lengths per sample were then plotted over time for each concentration of FQI2-34, from […], using Prism software. Triplicate technical replicates were performed for each concentration.

[2] = system: HT-29 cells; test: Allogeneic HT-29 xenograft model in athymic mice; assay type: in vivo
Description: Syngeneic and allogeneic xenograft models: We used 8-12 weeks-old athymic female mice for the allogeneic xenograft model and C57BL/6 mice for a syngeneic xenograft model, as described previously^26,27. All the mice were obtained from The Jackson Laboratory and housed at Boston University Medical Center based on the approval from the Institutional Animal Care and Use Committee. Each mouse was implanted subcutaneously on the dorsal surface and was monitored for tumor growth as measured with a VWR Digital Caliper. The tumor volume was calculated twice a week using the equation: length×width×height.
The mice were randomly separated into two groups once tumor volumes reached 100 mm^3. The FQI2-34 was suspended in a mixture of ethanol and DMSO. The mixture was agitated until the compound had completely dissolved. This solution was further diluted in 20% PEG 400 and water to give a final concentration of 2 mg/ml. FQI2-34 or vehicle was injected intraperitoneally daily at 5 mg/kg for 5 days, followed by a break for 2 days. After 21 days, both groups of mice were sacrificed, and the tumors were harvested.
Cell culture and other reagents: HT-29 cells were obtained from ATCC and grown in the Roswell Park Memorial Institute (RPMI) medium supplemented with 10% FBS and penicillin and streptomycin. Cells were injected with the growth-factor poor Matrigel (Millipore, catalogue number DLW354263) using a 23-gauge needle for a total volume of 200 microliters. The MC38 cell line was obtained from ATCC and grown in RPMI medium supplemented with 10% FBS and penicillin and streptomycin.
IHC was performed on the paraffin-embedded tumors as described previously^26-28. The manufacturer's protocol was used along with reagents from the Abcam Mouse and Rabbit Specific HRP/DAB IHC Detection Kit—Micro-polymer (ab236466). Primary antibodies and their dilutions used to detect the respective proteins were: Axin2 (Abcam, #ab32197, 1:100), β-catenin (BD Biosciences, #610154, 1:100), LSF (BD Biosciences, #610818, 1:100), SOX9 (Abcam, #ab185230, 1:100), Ki-67 (Cell Signaling, #8D5, 1:100). […]
All images and quantification were performed using the Nikon Eclipse TE2000 Inverted Microscope with the color camera at the Boston University School of Medicine (BUSM) Imaging Core. Random high-power field (hpf) images of every tumor sample were obtained. For quantification the signal was converted to grayscale, and the number and intensity of pixels were analyzed as integrated density by using Fiji. The integrated density of all the images was normalized to its area. The images were processed in ImageJ (National Institutes of Health, Bethesda, Md.) to quantitate the expression of SOX-9, AXIN-2, and LSF. Regions of interest were drawn and the expression was measured using integrated density normalized to the surface area. The average normalized integrated image densities from multiple hpfs were used to perform the correlational analysis between expression levels of pairs of proteins.

[3] = biological target: T1, LSF and β-catenin (Homo sapiens, UniProt Q12800); test: Immunoprecipitation of β-catenin probed for LSF in CRC cells; assay type: cell-based; details: 1 μM, 16 hours, HT-29 and HCT-116 cells
T1 construct: In both these cell lines, LSF co-immunoprecipitated with β-catenin; endogenous in cells; host or cells: HT-29 and HCT-116
T1 sequence (Q12800 1-502): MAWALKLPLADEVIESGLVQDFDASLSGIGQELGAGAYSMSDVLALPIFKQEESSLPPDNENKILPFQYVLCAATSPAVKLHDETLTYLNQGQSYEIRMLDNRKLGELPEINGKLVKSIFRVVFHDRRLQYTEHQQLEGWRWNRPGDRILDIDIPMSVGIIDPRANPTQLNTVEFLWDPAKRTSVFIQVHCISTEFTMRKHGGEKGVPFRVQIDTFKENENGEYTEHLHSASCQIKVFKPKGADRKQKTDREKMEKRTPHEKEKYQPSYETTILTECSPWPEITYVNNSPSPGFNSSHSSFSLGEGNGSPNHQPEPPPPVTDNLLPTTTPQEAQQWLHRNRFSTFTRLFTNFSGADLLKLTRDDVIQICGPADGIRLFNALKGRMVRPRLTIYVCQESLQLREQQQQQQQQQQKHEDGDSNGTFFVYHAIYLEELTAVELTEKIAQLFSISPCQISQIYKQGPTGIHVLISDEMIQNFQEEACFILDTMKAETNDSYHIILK
Description: Immunoprecipitation: The CRC cells were harvested. Proteins of interest were immunoprecipitated using the indicated antibodies at 1:100 concentration. The eluents were resolved by SDS polyacrylamide gel electrophoresis and probed with the indicated antibodies. All the antibodies for immunoblot and immunoprecipitation were acquired from Cell Signaling and were used at the recommended concentrations.

[4] = xenografts, immunohistochemistry

Row | Structure (SMILES) | time by which inhibition of migration is detectable ([1]; 4 μM FQI1) [h] | migration of cells into the wound ([1]; 4 μM FQI1 or 1 μM nocodazole, monitored 12 hours) | tumor volumes compared to controls ([2]; day 9, day 12 and day 17) | histopathological analysis of tumors (H & E) ([2]; day 21) | tumor volume, treated versus control ([2]; day 21) [times] | tumor volume ([2]; day 21, 5 mg/kg intraperitoneally daily for 5 days each week) [mm^3] | AXIN2, CCND1 and SOX9 by quantitative RT-PCR ([2]; xenograft lysates at end of treatment) | increase in TUNEL-positive cells ([2]; xenografts) [fold] | CRC cells with nuclear β-catenin, lower than control [2, 4] [fold] | downregulation of Ki-67 [2, 4] [fold] | reduction in AXIN2 (integrated density) [2, 4] [fold] | reduction in SOX9 (integrated density) [2, 4] [fold] | fold lower concentration than that used for FQI1 in the same assay [1] [fold] | concentration that effectively inhibits cell migration ([1]; 50, 100, 200 nM tested, 2-8 h) [nM] | interaction of LSF and β-catenin (co-immunoprecipitation) [3]
1 | CCOc1ccccc1C1CC(=O)Nc2cc3c(cc21)OCO3 (stereo not drawn) [FQI1, 8-(2-ethoxyphenyl)-7,8-dihydro-[1,3]dioxolo[4,5-g]quinolin-6(5H)-one] | ≤ 4 | hindered RPE cells from migrating into the wound |  |  |  |  |  |  |  |  |  |  |  |  | 
2 | CCOc1cc(N(C)C)ccc1-c1cc(=O)[nH]c2cc3c(cc12)OCO3 [FQI2-34, 8-(4-(dimethylamino)-2-ethoxyphenyl)-[1,3]dioxolo[4,5-g]quinolin-6(5H)-one] |  |  | significantly lower tumor volumes | lower tumor mass organized in luminal regions interspersed within the interstitium | 2 | 1120±193 | significantly downregulated | 1.8 | 4 | 4.2 | 5 | 3.2 | 20 | 200 | consistently reduced this interaction
